Values of other authors as cited in US20150309031A2, “COMPOSITIONS AND METHODS FOR PROGNOSIS AND TREATMENT OF CANCER” (NOVAZOI THERANOSTICS, priority 2013, published 2015).

Key:
[1] = molecular target: T1, KIFC1/microtubule (MT) binary complex (Homo sapiens, UniProt Q9BW19); conditions: read-out: Ki (ATP-competitive, MT-noncompetitive inhibition of MT-stimulated KIFC1 enzymatic activity); cited from earlier work
T1 sequence (Q9BW19 1-673): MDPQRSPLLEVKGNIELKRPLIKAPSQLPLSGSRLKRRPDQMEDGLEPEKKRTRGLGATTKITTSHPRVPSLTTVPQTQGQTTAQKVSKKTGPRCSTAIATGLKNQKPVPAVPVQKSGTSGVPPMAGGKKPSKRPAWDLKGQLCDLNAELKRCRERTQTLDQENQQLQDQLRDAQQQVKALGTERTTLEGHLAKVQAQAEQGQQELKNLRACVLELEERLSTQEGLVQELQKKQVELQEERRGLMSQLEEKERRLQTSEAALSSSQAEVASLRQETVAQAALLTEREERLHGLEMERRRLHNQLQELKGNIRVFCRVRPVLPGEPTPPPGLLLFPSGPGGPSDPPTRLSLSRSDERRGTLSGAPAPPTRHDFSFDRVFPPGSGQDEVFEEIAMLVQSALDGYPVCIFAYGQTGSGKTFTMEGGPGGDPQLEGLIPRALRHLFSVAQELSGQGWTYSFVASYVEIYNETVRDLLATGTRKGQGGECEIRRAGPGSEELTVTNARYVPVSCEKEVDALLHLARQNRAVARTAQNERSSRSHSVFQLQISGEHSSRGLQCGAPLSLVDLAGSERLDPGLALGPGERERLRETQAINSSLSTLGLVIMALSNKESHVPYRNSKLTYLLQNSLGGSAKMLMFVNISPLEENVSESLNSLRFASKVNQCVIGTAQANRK

[2] = system: BT-549 breast cancer cells; conditions: BT-549 cells with amplified centrosomes; cited from earlier work

## CCCc1cc(C(=O)N[C@H](Cc2ccc(-c3cccc(OC(F)(F)F)c3)nc2)C(=O)N[C@@H]2CCNC2)sc1C [AZ82]
[1]
  Ki: 0.043 µM
[2]
  centrosome declustering: causes centrosome declustering
